In US11420970B1 (NOVARTIS AG, priority 2019, dated 2022):
Like-named read-outs stand apart in the source and are kept apart here.

Molecular target: NSD2 [1-1365] (Homo sapiens (Human), UniProt O96028)
Experiment: LC-MS/MS-based NSD2 enzymatic assay (SAH production)
Format: biochemical
Details: read-out: NSD2 IC50
Method: LC-MS/MS-Based NSD2 Enzymatic Assay
This assay employed LC-MS/MS technology to monitor the SAH production from the NSD2 enzymatic reaction. The enzymatic reaction was performed in white proxiplate plus 384-well microplate (Perkin Elmer). The reaction mixture (10 μL) were composed of 8 nM NSD2 [1-1365], […] SAM (USB, 10601) and 400 nM nucleosome (purified from mouse liver) in reaction buffer (20 mM Tris-HCl, pH at 8.0, 0.01% Tween 20, 10 mM MgCl2, 50 mM NaCl, 1 mM DTT, 1 mM TCEP (pH7.5)). After 90 min incubation at room temperature, 3 μL quenching solution containing 2.5% TFA with 320 nM d4-SAH was added to stop the reaction.
For the inhibition assay, compound solutions were transferred into the wells by Mosquito™ (TTP LabTech). The inhibition assays were carried out by preincubating various concentrations of the inhibitor with 5 uL reaction mixture containing 16 nM NSD2 [1-1365] and 2 uM SAM (USB, 10601) in reaction buffer. After 20 min preincubation, 5 uL solution containing 800 nM nucleosome (purified from mouse liver) in reaction buffer was added to initiate the reaction. The reaction was stopped by 3 μL quenching solution containing 2.5% TFA with 320 nM d4-SAH after 90 min.
The SAH production from the enzymatic assays were monitored by LC-MS/MS on an API 4000 triple quadrupole mass spec with Turbolon Spray (Applied Biosystem) coupled with Prominenece UFLC(Shimazu). Liquid chromatography was performed on a Chromolith FastGradient HPLC column (RP-18e, 25-2 mm, from Merck) at a flow rate of 0.8 ml/min. The column was connected directly to the turbo ion electrospray operating in the positive-ion mode. Mobile phase A is 0.1% FA and 2% methanol in water and mobile phase B is 0.1% FA in ACN. Injection volume was 3 μl and the autosampler was kept at 4 degree. SAH and d4-SAH were simultaneously monitored. Data were acquired and processed by Analyst software.
To quantify the formed SAH, d4-SAH was added as internal standard (IS). A series of SAH (Sigma, A9384) solution at varying concentration (1-500 nM in reaction buffer) was mixed with quenching solution mentioned above. Then LC-MS/MS was carried out on API 4000 LC/MS/MS system to detect both SAH and d4-SAH. The plot of SAH peak area/IS peak area vs SAH concentration was used to generate the normalization factor of SAH. The SAH production from real enzymatic reaction was derived from the standard curve of SAH. The down-limit of our system for the detection of SAH is around 1-2 nM, and the linear range can reach up to 500 nM.

[1] = NSD2 biochemical activity, class symbols

NSD2 [1-1365], sequence (O96028 whole entry): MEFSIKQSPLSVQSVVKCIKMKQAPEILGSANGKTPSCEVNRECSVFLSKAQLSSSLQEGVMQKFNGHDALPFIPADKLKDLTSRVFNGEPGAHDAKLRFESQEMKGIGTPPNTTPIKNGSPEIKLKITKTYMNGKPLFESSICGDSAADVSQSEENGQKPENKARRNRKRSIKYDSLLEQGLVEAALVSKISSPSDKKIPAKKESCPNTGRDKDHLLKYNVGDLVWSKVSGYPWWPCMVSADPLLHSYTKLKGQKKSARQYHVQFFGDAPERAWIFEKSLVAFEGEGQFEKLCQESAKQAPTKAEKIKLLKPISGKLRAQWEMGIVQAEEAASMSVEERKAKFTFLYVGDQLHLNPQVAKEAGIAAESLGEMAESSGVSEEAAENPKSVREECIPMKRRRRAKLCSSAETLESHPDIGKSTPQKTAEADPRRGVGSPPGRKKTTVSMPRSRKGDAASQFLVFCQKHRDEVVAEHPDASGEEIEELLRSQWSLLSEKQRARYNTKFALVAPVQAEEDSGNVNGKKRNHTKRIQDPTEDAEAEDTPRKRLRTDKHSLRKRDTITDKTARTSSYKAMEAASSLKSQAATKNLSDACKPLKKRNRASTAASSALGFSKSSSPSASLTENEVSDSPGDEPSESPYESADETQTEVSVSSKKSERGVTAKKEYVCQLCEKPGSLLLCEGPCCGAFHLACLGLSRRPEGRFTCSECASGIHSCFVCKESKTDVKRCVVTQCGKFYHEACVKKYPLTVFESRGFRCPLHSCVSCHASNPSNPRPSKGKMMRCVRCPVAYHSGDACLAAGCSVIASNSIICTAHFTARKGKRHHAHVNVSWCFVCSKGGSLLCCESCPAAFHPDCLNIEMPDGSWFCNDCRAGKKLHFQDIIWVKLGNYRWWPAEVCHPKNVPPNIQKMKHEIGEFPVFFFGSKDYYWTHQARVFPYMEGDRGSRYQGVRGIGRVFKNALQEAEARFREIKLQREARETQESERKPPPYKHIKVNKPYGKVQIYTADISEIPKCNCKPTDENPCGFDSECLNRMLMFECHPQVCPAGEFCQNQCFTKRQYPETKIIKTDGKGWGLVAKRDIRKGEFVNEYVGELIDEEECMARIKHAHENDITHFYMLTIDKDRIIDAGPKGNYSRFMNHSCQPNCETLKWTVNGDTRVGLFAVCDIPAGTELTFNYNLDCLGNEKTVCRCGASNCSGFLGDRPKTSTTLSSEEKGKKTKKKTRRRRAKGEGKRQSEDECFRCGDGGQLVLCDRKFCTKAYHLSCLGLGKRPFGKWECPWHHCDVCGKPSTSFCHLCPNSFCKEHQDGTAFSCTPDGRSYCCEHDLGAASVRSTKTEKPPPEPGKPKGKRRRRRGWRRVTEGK

SMILES | IC50 [nM] | IC50 [1] [nM]
COc1ccc(-c2ncc(N3CCC[C@](N)([C@H](O)C(F)F)C3)c(Cn3cnc4c(N)ncnc43)c2F)c(F)c1 [Example 135, (S)-1-((R)-3-amino-1-(4-((6-amino-9H-purin-9-yl)methyl)-5-fluoro-6-(2-fluoro-4-methoxyphenyl)pyridin-3-yl)piperidin-3-yl)-2,2-difluoroethan-1-ol] |  | 10 to 1000
Nc1nccc2c1ncn2Cc1cc(-c2ccc(F)cc2)ncc1N1CCC[C@](N)(c2ccn(C(F)F)n2)C1 [Example 279, (R)-1-((5-(3-amino-3-(1-(difluoromethyl)-1H-pyrazol-3-yl)piperidin-1-yl)-2-(4-fluorophenyl)pyridin-4-yl)methyl)-1H-imidazo[4,5-c]pyridin-4-amine] | 1 to 10 | 
Nc1ncnc2c1ncn2Cc1cc(-c2ccc3c(c2)CCO3)ncc1N1CCC[C@](N)(c2cccc(Cl)n2)C1 [Example 185, (R)-9-((5-(3-amino-3-(6-chloropyridin-2-yl)piperidin-1-yl)-2-(2,3-dihydrobenzofuran-5-yl)pyridin-4-yl)methyl)-9H-purin-6-amine] | 10 to 1000 | 
N#Cc1ccc(-c2cc(Cn3cnc4c(N)ncnc43)c(N3CCCC(N)(c4cccc(Cl)n4)C3)cn2)cc1F (centres unmarked) [Example 223] | 10 to 1000 | 
Nc1ncnc2c1ncn2Cc1cc(-c2ccc(C(F)F)cc2F)ncc1N1CCC[C@](N)([C@H](O)C(F)F)C1 [Example 137, (S)-1-((R)-3-amino-1-(4-((6-amino-9H-purin-9-yl)methyl)-6-(4-(difluoromethyl)-2-fluorophenyl)pyridin-3-yl)piperidin-3-yl)-2,2-difluoroethan-1-ol] |  | 10 to 1000
Nc1ncnc2c1ncn2Cc1cc(-c2ccc3nccn3c2)ncc1N1CCCC(N)(c2cccc(Cl)n2)C1 (centres unmarked) [Example 210, 9-((5-(3-amino-3-(6-chloropyridin-2-yl)piperidin-1-yl)-2-(imidazo[1,2-a]pyridin-6-yl)pyridin-4-yl)methyl)-9H-purin-6-amine] | 10 to 1000 | 
Nc1ncnc2c1ncn2Cc1cc(-c2ccc3ccnn3c2)ncc1N1CCCC(N)(c2cccc(Cl)n2)C1 (centres unmarked) [Example 222, 9-((5-(3-amino-3-(6-chloropyridin-2-yl)piperidin-1-yl)-2-(pyrazolo[1,5-a]pyridin-6-yl)pyridin-4-yl)methyl)-9H-purin-6-amine] | 10 to 1000 | 
Nc1ncnc2c1ncn2Cc1cc(-c2ccc(F)cc2)ncc1N1CCC[C@](N)(c2ccn(C(F)F)n2)C1 [Example 273, (R)-9-((5-(3-amino-3-(1-(difluoromethyl)-1H-pyrazol-3-yl)piperidin-1-yl)-2-(4-fluorophenyl)pyridin-4-yl)methyl)-9H-purin-6-amine] | 1 to 10 | 
COc1ccc(-c2cc(Cn3cnc4c(N)ncnc43)c(N3CCC[C@](N)(COC4CC4)C3)cn2)cc1F [Example 31, (R)-9-((5-(3-amino-3-(cyclopropoxymethyl)piperidin-1-yl)-2-(3-fluoro-4-methoxyphenyl)pyridin-4-yl)methyl)-9H-purin-6-amine] |  | 1 to 10
Cn1ccc([C@@]2(N)CCCN(c3cnc(-c4ccc(F)c(F)c4)cc3Cn3cnc4c(N)ncnc43)C2)n1 [Example 275, (R)-9-((5-(3-amino-3-(1-methyl-1H-pyrazol-3-yl)piperidin-1-yl)-2-(3,4-difluorophenyl)pyridin-4-yl)methyl)-9H-purin-6-amine] | 1 to 10 | 
Nc1ncnc2c1ncn2Cc1cc(C2CC2)ncc1N1CCC[C@](N)(c2cccc(Cl)n2)C1 [Example 204, (R)-9-((5-(3-amino-3-(6-chloropyridin-2-yl)piperidin-1-yl)-2-cyclopropylpyridin-4-yl)methyl)-9H-purin-6-amine] | 10 to 1000 | 

Results, then the molecule that gave them:

IC50 [nM] | IC50 [1] [nM] | SMILES
> 1000 |  | CN(C)C(=O)[C@@H]1[C@H](N)CCCN1c1cnc(-c2ccc(F)c(F)c2)cc1Cn1cnc2c(N)ncnc21 [Example 317, (2S,3R)-3-amino-1-(4-((6-amino-9H-purin-9-yl)methyl)-6-(3,4-difluorophenyl)pyridin-3-yl)-N,N-dimethylpiperidine-2-carboxamide]
 | 1 to 10 | COC[C@@]1(N)CCCN(c2cnc(-c3ccc(F)c(Cl)c3)cc2Cn2cnc3c(N)ncnc32)C1 [Example 28, (R)-9-((5-(3-amino-3-(methoxymethyl)piperidin-1-yl)-2-(3-chloro-4-fluorophenyl)pyridin-4-yl)methyl)-9H-purin-6-amine]
> 1000 |  | CS(=O)(=O)CC1(N)CCCN(c2cnc(-c3ccc(F)c(F)c3)cc2Cn2cnc3c(N)ncnc32)C1 (centres unmarked) [Example 298, 9-((5-(3-amino-3-((methylsulfonyl)methyl)piperidin-1-yl)-2-(3,4-difluorophenyl)pyridin-4-yl)methyl)-9H-purin-6-amine]
> 1000 |  | NC(=O)C[C@@H]1[C@H](N)CCCN1c1cnc(-c2ccc(F)c(F)c2)cc1Cn1cnc2c(N)ncnc21 [Example 320, 2-((2R,3R)-3-amino-1-(4-((6-amino-9H-purin-9-yl)methyl)-6-(3,4-difluorophenyl)pyridin-3-yl)piperidin-2-yl)acetamide]
 | 10 to 1000 | CC1CCCN1C(=O)C1(N)CCCN(c2cnc(-c3ccc(F)c(F)c3)cc2Cn2cnc3c(N)ncnc32)C1 (centres unmarked) [Example 88, (3-amino-1-(4-((6-amino-9H-purin-9-yl)methyl)-6-(3,4-difluorophenyl)pyridin-3-yl)piperidin-3-yl)(2-methylpyrrolidin-1-yl)methanone]
> 1000 |  | Nc1ncnc2c1ncn2Cc1cc(-c2ccc(F)c(F)c2)ncc1N1CCCC2(COCCN2)C1 (centres unmarked) [Example 321, 9-((2-(3,4-difluorophenyl)-5-(4-oxa-1,8-diazaspiro[5.5]undecan-8-yl)pyridin-4-yl)methyl)-9H-purin-6-amine]
> 1000 |  | Nc1ncnc2c1ncn2Cc1cc(-c2ccc(F)c(F)c2)ncc1N1C[C@H](N)CCC1=O [Example 325, (R)-5-amino-1-(4-((6-amino-9H-purin-9-yl)methyl)-6-(3,4-difluorophenyl)pyridin-3-yl)piperidin-2-one]
10 to 1000 |  | Nc1ncnc2c1ncn2Cc1cc(-c2ccc(F)c(F)c2)ncc1N1CCC[C@]2(COC(=O)N2)C1 [Example 292, (R)-7-(4-((6-amino-9H-purin-9-yl)methyl)-6-(3,4-difluorophenyl)pyridin-3-yl)-3-oxa-1,7-diazaspiro[4.5]decan-2-one]
 | > 1000 | N#CCC1(N)CCCN(c2cnc(-c3ccc(F)c(F)c3)cc2Cn2cnc3c(N)ncnc32)C1 (centres unmarked) [Example 77, 2-(3-amino-1-(4-((6-amino-9H-purin-9-yl)methyl)-6-(3,4-difluorophenyl)pyridin-3-yl)piperidin-3-yl)acetonitrile]
10 to 1000 |  | Nc1ncnc2c1ncn2Cc1cc(-c2ccc(F)c(F)c2)ncc1N1CCC[C@@H](N)[C@H]1COCC(F)F [Example 313, 9-((5-((2S,3R)-3-amino-2-((2,2-difluoroethoxy)methyl)piperidin-1-yl)-2-(3,4-difluorophenyl)pyridin-4-yl)methyl)-9H-purin-6-amine]
> 1000 |  | NC(=O)[C@@H]1[C@H](N)CCCN1c1cnc(-c2ccc(F)c(F)c2)cc1Cn1cnc2c(N)ncnc21 [Example 318, (2S,3R)-3-amino-1-(4-((6-amino-9H-purin-9-yl)methyl)-6-(3,4-difluorophenyl)pyridin-3-yl)piperidine-2-carboxamide]
> 1000 |  | Nc1ncnc2c1ncn2Cc1cc(-c2ccc(F)c(F)c2)ncc1N1CCC[C@@H](N)[C@H]1C(=O)O [Example 319]
